Experimental data as given in PubChem BioAssay (NCI).
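All cell lines were grown in 96-well plates and treated with compound for 48 hours. Definition used: TGI = concentration required for complete inhibition of growth.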

Legend:
Assay in all cases: inhibition of tumour cell growth, NCI panel, 48 h
[1] = system: 786-0 renal
[2] = system: A498 renal
[3] = system: A549 NSCLC
[4] = system: ACHN renal
[5] = system: BT-549 breast
[6] = system: CAKI-1 renal
[7] = system: CCRF-CEM leukemia
[8] = system: COLO 205 colon
[9] = system: DU-145 prostate
[10] = system: EKVX NSCLC
[11] = system: HCC-2998 colon
[12] = system: HCT-116 colon
[13] = system: HCT-15 colon
[14] = system: HL-60(TB) leukemia
[15] = system: HOP-62 NSCLC
[16] = system: HOP-92 NSCLC
[17] = system: HS 578T breast
[18] = system: HT29 colon
[19] = system: IGROV1 ovarian
[20] = system: K-562 leukemia
[21] = system: KM12 colon
[22] = system: LOX IMVI melanoma
[23] = system: M14 melanoma
[24] = system: MALME-3M melanoma
[25] = system: MCF7 breast
[26] = system: MDA-MB-435
[27] = system: MDA-N
[28] = system: MOLT-4 leukemia
[29] = system: NCI-H226 lung
[30] = system: NCI-H23 lung
[31] = system: NCI-H460 lung
[32] = system: NCI-H522 lung
[33] = system: NCI/ADR-RES ovarian
[34] = system: OVCAR-3 ovarian
[35] = system: OVCAR-4 ovarian
[36] = system: OVCAR-5 ovarian
[37] = system: OVCAR-8 ovarian
[38] = system: PC-3 prostate
[39] = system: RPMI-8226 leukemia
[40] = system: RXF 393 renal
[41] = system: SF-268 CNS
[42] = system: SF-295 CNS
[43] = system: SF-539 CNS
[44] = system: SK-MEL-2 melanoma
[45] = system: SK-MEL-28 melanoma
[46] = system: SK-MEL-5 melanoma
[47] = system: SK-OV-3 ovarian
[48] = system: SN12C renal
[49] = system: SNB-19 CNS
[50] = system: SNB-75 CNS
[51] = system: SR leukemia
[52] = system: SW-620 colon
[53] = system: T-47D breast
[54] = system: TK-10 renal
[55] = system: U251 CNS
[56] = system: UACC-257 melanoma
[57] = system: UACC-62 melanoma
[58] = system: UO-31 renal
[59] = system: MDA-MB-231 breast

In the case of `NC(=S)N1N=C(c2ccc3c(c2)CCC3)CC1c1ccccc1` (stereo not drawn), the TGI [1] is reported as > 100 µM, the TGI [2] is reported as 29.2 µM and the TGI [3] is reported as > 100 µM. The TGI [4] was > 100 µM, the TGI [5] was 98.3 µM and the TGI [6] was > 100 µM. The TGI [7] was > 100 µM, the TGI [8] was 50.8 µM and the TGI [9] was 80.8 µM. For the same molecule, the TGI [10] was > 100 µM, the TGI [11] was 36.8 µM and the TGI [12] was 87.6 µM. For the same molecule, the TGI [13] was 69.6 µM, the TGI [14] was 44.5 µM and the TGI [15] was 87 µM. For the same molecule, the TGI [16] was 85.7 µM, the TGI [17] was > 100 µM and the TGI [18] was > 100 µM. The TGI [19] was > 100 µM, the TGI [20] was > 100 µM and the TGI [21] was > 100 µM. The TGI [22] was > 100 µM, the TGI [23] was > 100 µM and the TGI [24] was 74.4 µM. For the same molecule, the TGI [25] was 45.2 µM, the TGI [26] was 96.9 µM and the TGI [27] was > 100 µM. The TGI [28] was > 100 µM, the TGI [29] was > 100 µM and the TGI [30] was 95.5 µM. For the same molecule, the TGI [31] was 64.9 µM, the TGI [32] was 24.7 µM and the TGI [33] was 58.6 µM. The TGI [34] was 55.8 µM, the TGI [35] was 85.2 µM and the TGI [36] was > 100 µM. For the same molecule, the TGI [37] was > 100 µM, the TGI [38] was 87.8 µM and the TGI [39] was 51.7 µM. The TGI [40] was 28 µM, the TGI [41] was > 100 µM and the TGI [42] was 68.3 µM. The TGI [43] was 43 µM, the TGI [44] was 36.2 µM and the TGI [45] was > 100 µM. The TGI [46] was 31.3 µM, the TGI [47] was 88.6 µM and the TGI [48] was > 100 µM. The TGI [49] was > 100 µM, the TGI [50] was 56.1 µM and the TGI [51] was 95.5 µM. The TGI [52] was > 100 µM, the TGI [53] was 27.9 µM and the TGI [54] was 87.1 µM. The TGI [55] was 63.5 µM, the TGI [56] was 86.9 µM and the TGI [57] was 74.1 µM. For the same molecule, the TGI [58] was > 100 µM.

In the case of `COc1ccc(N2C(=O)CSC2c2cc(OC)c(OC)c(OC)c2)cc1` (stereo not drawn), the TGI [1] is reported as 48.4 µM, the TGI [2] is reported as 55.3 µM and the TGI [3] is reported as 83.4 µM. It also gave a TGI [4] of 40.9 µM, a TGI [5] of 52.1 µM and a TGI [6] of 62.7 µM. It also gave a TGI [7] of 35.1 µM, a TGI [8] of 54.1 µM and a TGI [9] of 72.2 µM. For the same molecule, the TGI [10] was > 100 µM, the TGI [11] was 39.9 µM and the TGI [12] was 33.4 µM. The TGI [13] was 44.4 µM, the TGI [14] was 69.8 µM and the TGI [16] was > 100 µM. The TGI [17] was > 100 µM, the TGI [18] was 57.1 µM and the TGI [19] was > 100 µM. The TGI [20] was > 100 µM, the TGI [21] was 32.9 µM and the TGI [22] was 92.9 µM. For the same molecule, the TGI [23] was 57.8 µM, the TGI [24] was 97.7 µM and the TGI [25] was > 100 µM. It also gave a TGI [59] of 78.1 µM, a TGI [26] of 85.2 µM and a TGI [27] of 55.9 µM. For the same molecule, the TGI [28] was > 100 µM, the TGI [29] was > 100 µM and the TGI [30] was > 100 µM. The TGI [31] was 63.5 µM, the TGI [32] was 73.6 µM and the TGI [33] was 85.6 µM. For the same molecule, the TGI [34] was 64.8 µM, the TGI [35] was > 100 µM and the TGI [36] was 73.9 µM. The TGI [37] was > 100 µM, the TGI [38] was > 100 µM and the TGI [39] was > 100 µM. The TGI [41] was > 100 µM, the TGI [42] was 71.9 µM and the TGI [43] was > 100 µM. For the same molecule, the TGI [44] was > 100 µM, the TGI [45] was > 100 µM and the TGI [46] was 87.2 µM. For the same molecule, the TGI [47] was 71 µM, the TGI [48] was 65.9 µM and the TGI [49] was 80.8 µM. For the same molecule, the TGI [51] was 51.3 µM, the TGI [52] was > 100 µM and the TGI [54] was > 100 µM. For the same molecule, the TGI [55] was 39 µM, the TGI [56] was 28.9 µM and the TGI [57] was 20.9 µM. For the same molecule, the TGI [58] was 27.1 µM.
